Values of other authors as cited in patent EP1844782A1 (priority 2006, dated 2007).

Test system: EAE
Settings: EAE (Craner et al., 2005)

For `O=C1NC(=O)C(c2ccccc2)(c2ccccc2)N1` [phenytoin], the “ameliorates the inflammatory cell infiltrate in EAE” value is given as 75%.
